{
  "source": "patent US20150239831A1",
  "about": "“INHIBITORS OF CENTRAL NERVOUS SYSTEM VASOACTIVE INHIBITORY PEPTIDE RECEPTOR 2” (The Trustees Of Columbia University In The City Of New York, priority 2012, published 2015)",
  "molecular_target": "T1, VIPR2 (Homo sapiens, UniProt P41587)",
  "T1 sequence (P41587 24-438)": "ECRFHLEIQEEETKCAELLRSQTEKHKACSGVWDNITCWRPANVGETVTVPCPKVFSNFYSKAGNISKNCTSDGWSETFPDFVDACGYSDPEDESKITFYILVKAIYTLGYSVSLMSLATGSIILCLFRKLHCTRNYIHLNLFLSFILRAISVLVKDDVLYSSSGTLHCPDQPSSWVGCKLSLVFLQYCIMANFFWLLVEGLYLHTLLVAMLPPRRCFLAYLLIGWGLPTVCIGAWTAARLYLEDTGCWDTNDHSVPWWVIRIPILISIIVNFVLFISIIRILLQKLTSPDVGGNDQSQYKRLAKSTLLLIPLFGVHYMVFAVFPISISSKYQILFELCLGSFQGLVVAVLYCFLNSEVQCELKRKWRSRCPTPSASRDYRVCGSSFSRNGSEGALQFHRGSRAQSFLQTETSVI",
  "experiment": "BRET-based VIPR2 activation assay (CAMYEL cAMP sensor, CHO cells, VIP background)",
  "type": "cell-based",
  "details": "for VIPR2 inhibition in BRET-based assay (in words): FIG. 1C, FIG. 5",
  "from_the_text": "In such a system, a detector cell is used which expresses both the VIPR2 receptor and “CAMYEL,” a YFP-Epac-RLuc8 BRET sensor construct. This construct includes Epac1, a guanine nucleotide exchange factor activated by direct binding of cAMP, fused with an enhanced YFP and Renilla luciferase 8 (Rluc8) allowing BRET upon cAMP-induced conformational changes (Jiang et al., 2007, J Biol Chem. 282:10576-10584). In response to elevated cAMP levels, there is a conformational change in Epac and therefore a change in the proximity of the fused chromophores, Rluc8 and YFP, resulting in measurable energy transfer. Coexpression of this BRET construct with VIPR2, optionally tagged at the N-terminus with a signal peptide and FLAG epitope (SF-VIPR2), for example in HEK293 cells, allows for detection of a VIPR2-specific response to cAMP. BRET readout may be calculated by quantifying the ratio of the light emitted by the acceptor, YFP (λ=525 nm), over the emission from the donor, RLuc8 (λ=485 nm). The proximity of the donor and acceptor, and therefore the BRET ratio, decreases in the presence of cAMP. In non-limiting specific embodiments, a stable cell line may be generated for this assay using the Flp-In T-Rex system in HEK293 cells. This system allows site-specific single copy integration of the gene of interest and control of expression levels using the Tet-repressor site making receptor expression tetracycline-inducible. For example, a CAMYEL and VIPR2 expressing line may be induced with 0.01 μg/ml tetracycline, then, 24 hours later cells may be collected and distributed into 96-well plates. After treatment with candidate inhibitor compound, for example at 5, 1 and 0.5 μM concentrations, cells may be incubated with the light emitting luciferin, coelenterazine H, for 5 min and incubated for 5 min with VIP at increasing concentrations, for example ranging from […] to 10 μM. The fluorescence and luminescence may then be quantified, for example using a PHERAstar (BMG) plate reader. […] Alternatively, analogous experiments may be performed using human cells harvested from a patient having a VIPR2 copy number variation, for example (but not by way of limitation) pluripotent stem cells prepared from such a patient and then transfected with a CAMYEL construct.\nNumerous cellular assays were developed that were able to detect VIP responses absent of interference from non-specific vasopressin receptors using this CHO based system. VIPR2 is a Gs coupled receptor. Activation of VIPR2 by VIP leads to both an elevation in cAMP signaling and the recruitment of β-arrestin. A variety of combinations can be transiently transfect into these CHO cells for the assessment of cellular responses to VIP. For the BRET readout CHO cell lines expressing an YFP-Epac-RLuc8 (CAMYEL) BRET sensor were used to detect changes in cAMP. This construct includes Epac1, a guanine nucleotide exchange factor activated by direct binding of cAMP, fused to an enhanced YFP and RLuc8 allowing a change in BRET upon cAMP-induced conformational changes. The key for medium to high throughput screening assays is the use of stable cell lines allowing the continuous assaying of multiple compounds with the ability to generate large numbers of cells for rapid use. In these lines VIPR2 was expressed as one of the stable cell lines assays. This was introduced into the CHO-Flp-IN to allow the generation of isogenic stable cell lines expressing high levels of VIPR2 under control of the CMV promoter. This has been introduced into this line together with the CAMYEL construct previously described. This allows for detection of VIPR2-specific responses to cAMP. EYFP fluorescence and RLuc8 luminescence is quantified in the presence of 5 μM light-emitting luciferin, coelenterazine H, using a PHERAstar (BMG) plate reader. BRET is calculated by quantifying the ratio of the light emitted by the acceptor, YFP (λ=525 nm), over the emission from the donor, RLuc8 (λ=485 nm).\n3. […]",
  "key": {"[1]": {"details": "Table 2, read-out: BRET results (IC50)"}},
  "note": "Entries after “also recorded” stand apart in the source; their conditions may differ. Read-outs that look alike come from different tables or passages of the source.",
  "data": [
    {"smiles": "N#Cc1ccc(S(=O)(=O)NC[C@@H](O)C[C@@H](Cc2ccccc2)C(=O)N[C@H]2c3ccccc3C[C@H]2O)cc1", "note": "[C]", "values": [
      {"measurement": "IC50", "setting": "Table 1, read-out: IC50", "value": 1330, "unit": "nM"},
      {"measurement": "IC50", "setting": "[1]", "value": 1330, "unit": "nM"}
    ]},
    {"smiles": "Cc1ccc(S(=O)(=O)NC[C@@H](O)C[C@@H](Cc2ccccc2)C(=O)N[C@H]2c3ccccc3C[C@H]2O)cc1", "note": "[I]", "values": [
      {"measurement": "IC50", "setting": "Table 1, read-out: IC50", "value": 1180, "unit": "nM"},
      {"measurement": "IC50", "setting": "[1]", "value": 1980, "unit": "nM"}
    ]},
    {"smiles": "CC(=O)c1ccc(S(=O)(=O)NC[C@@H](O)C[C@@H](Cc2ccccc2)C(=O)N[C@H]2c3ccccc3C[C@H]2O)cc1", "note": "[K]", "values": [
      {"measurement": "VIPR2 inhibition in BRET-based assay (in words)", "value": "significantly improved activity as an antagonist at VIPR2"},
      {"measurement": "IC50", "setting": "Table 1, read-out: IC50", "value": 426, "unit": "nM"},
      {"measurement": "IC50", "setting": "[1]", "value": 426, "unit": "nM"}
    ]},
    {"smiles": "COc1ccc(S(=O)(=O)NC[C@@H](O)C[C@@H](Cc2ccccc2)C(=O)N[C@H]2c3ccccc3C[C@H]2O)cc1", "note": "[E]", "values": [
      {"measurement": "IC50", "setting": "Table 1, read-out: IC50", "value": 1020, "unit": "nM"},
      {"measurement": "IC50", "setting": "[1]", "value": 1020, "unit": "nM"}
    ]},
    {"smiles": "O=C(N[C@H]1c2ccccc2C[C@H]1O)[C@H](Cc1ccccc1)C[C@H](O)CNS(=O)(=O)c1ccc(C(F)(F)F)cc1", "note": "[F]", "values": [
      {"measurement": "VIPR2 inhibition in BRET-based assay (in words)", "value": "greater activity than Compound 1; also recorded: greater effect on V IPR2 inhibition than Compound 1"},
      {"measurement": "IC50", "setting": "[1]", "value": 2340, "unit": "nM"}
    ]},
    {"smiles": "CC(C)c1ccc(S(=O)(=O)NC[C@@H](O)C[C@@H](Cc2ccccc2)C(=O)N[C@H]2c3ccccc3C[C@H]2O)cc1", "note": "[Compound A10]", "values": [
      {"measurement": "IC50", "setting": "[1]", "value": 3440, "unit": "nM"}
    ]}
  ]
}
